Results as given in publication PMC7470941 (2020).

Experiments:
[1] = system: FPON1 (DNA, i motif, 5'-fluoromonophosphate) TCCCCC; test: 19F NMR titration; conditions: Na+ (50 mM sodium citrate); pH 4.2, 10% D2O, 25 °C; 500 μM FPON1 (125 μM i-motif), 100 μM AMPF reference
[2] = system: FP-hTeloC (DNA, i motif, 5'-fluoromonophosphate) TAACCCTAACCCTAACCCTAACCC; test: 19F NMR melting, i-motif signal; conditions: Na+ (50 mM citrate buffer); pH 5.5, 10% D2O; 250 μM DNA, two equivalents mitoxantrone (+1.1 °C at 0.3 equivalents)
[3] = system: hTeloC (DNA, i motif) TAACCCTAACCCTAACCCTAACCC; test: UV/VIS melting, 295 nm; conditions: Na+ (50 mM citrate buffer); pH 5.5, 10% D2O; destabilised by excess mitoxantrone
[4] = system: FP-hTeloC, ssDNA form at pH 6.4 (DNA, single strand, 5'-fluoromonophosphate) TAACCCTAACCCTAACCCTAACCC; test: 19F NMR chemical shift change; conditions: Na+ (10 mM sodium cacodylate, 100 mM NaCl); pH 6.4, 10% D2O; i-motif:ssDNA 45:55; ΔδF = −0.02 ppm
[5] = system: FP-hTeloC (DNA, i motif, 5'-fluoromonophosphate) TAACCCTAACCCTAACCCTAACCC; test: UV/VIS melting, 295 nm; conditions: Na+ (50 mM citrate buffer); pH 5.5, 10% D2O; 4 μM DNA; destabilised by excess mitoxantrone
[6] = system: FP-hTeloC (DNA, i motif, 5'-fluoromonophosphate) TAACCCTAACCCTAACCCTAACCC; test: 19F NMR titration; conditions: Na+ (50 mM sodium citrate); apparent; pH 4.2, 10% D2O; 212.5 μM FP-hTeloC, 80 μM AMPF reference

Row | Kd [1] | binding [4] | Kd [6] | SMILES | ΔTm [2] | binding [3] | binding [5]
1 | 180 ± 30 µM |  |  | C[n+]1ccc(-c2c3nc(c(-c4cc[n+](C)cc4)c4ccc([nH]4)c(-c4cc[n+](C)cc4)c4nc(c(-c5cc[n+](C)cc5)c5ccc2[nH]5)C=C4)C=C3)cc1 |  |  | 
2 |  | weak | 70 ± 30 µM | O=C1c2c(O)ccc(O)c2C(=O)c2c(NCCNCCO)ccc(NCCNCCO)c21 | −3.2 °C | yes | yes
